According to patent publication US6790968B1, “Substance FKI-0076 and process for producing the same” (The Kitasato Institute, priority 2002, dated 2004):
In brackets after ≈: the same amount, converted by molar mass.

Assays:
Assay type in all cases: cell-based
[1] = system: Bacillus subtilis KB27 (ATCC6633); assay: MIC, microbroth dilution method; settings: ATCC6633, 24 h
Pyricularia oryzae KB180 = assay: microbe, parasite or virus in culture; settings: KB180, 48 h
[2] = system: Aspergillus niger KB103 (ATCC6275); assay: MIC, microbroth dilution method; settings: ATCC6275, 48 h
[3] = system: Mucor racemosus KF223 (IF04581); assay: MIC, microbroth dilution method; settings: 24 h
[4] = system: Mycobacterium smegmatis KB42 (ATCC607); assay: MIC, microbroth dilution method; settings: Mycolicibacterium smegmatis, ATCC607, 24 h
[5] = system: Pseudomonas aeruginosa KB105 (IF03080); assay: MIC, microbroth dilution method; settings: 24 h
[6] = system: Micrococcus luteus KB40 (ATCC9431); assay: MIC, microbroth dilution method; settings: ATCC9431, 24 h
[7] = system: Staphylococcus aureus KB210 (ATCC6538P); assay: MIC, microbroth dilution method; settings: 24 h
[8] = system: Saccharomyces cerevisiae KF26 (ATCC 9763); assay: Enhanced activity of azole antifungal agent, paper disc method; settings: 100 μg, 27° C., 24 hours
Protocol: (§1) Enhanced activity of azole antifungal agent is determined by the following method. Candida albicans KF1 and Saccharomyces cerevisiae KF26 (ATCC 9763) were used. Candida albicans KF1 was cultured in Waksman broth (glucose 2.0%, peptone 0.5%, meat extract 0.5%, and NaCl 0.5%, pH 7.0) and Saccharomyces cerevisiae KF26 was cultured in potato broth (glucose 1.0%, peptone 0.5% and potato extract 100 ml). Both strains were cultured at 27° C. for 40 hours. Subsequently, each strain was inoculated in GY agar medium (glucose 1.0%, yeast extract 0.5% and agar 0.8%, pH 6.0). […]. Miconazole (Sigma Chemicals, Inc.) was used as the azole antifungal agent. […] Activities were assessed using paper disc ([…]: 8 mm, ADVANTEC Inc.). After being cultured at 27° C. for 24 hours, the diameter of the inhibitory zone was measured for each organism.

Candida albicans KF1 [9] = assay: as above; settings: 100 μg, 27° C., 24 hours
Protocol: as §1

[10] = system: Acholeplasma laidlawii KB174; assay: MIC, microbroth dilution method; settings: KB174, 24 h
[11] = system: Saccharomyces cerevisiae KF26 (ATCC9763); assay: MIC, microbroth dilution method; settings: ATCC9763, 24 h
[12] = system: Xanthomonas campestris pv. oryzae KB88; assay: microbe, parasite or virus in culture; settings: 24 h
Candida albicans KF1 [13] = assay: MIC, microbroth dilution method; settings: KF1, 24 h
[14] = system: Escherichia coli KB176 (IF012734); assay: MIC, microbroth dilution method; settings: 24 h
[15] = miconazole 0.1 μg/ml added to GY agar
[16] = without addition of miconazole, GY agar

COC(=O)c1cc(OC)cc(OC)c1C(=O)c1coc(CC(C)OC(C)=O)cc1=O (centres unmarked) [FKI-0076 substance] was tested, and the MIC [1] was over 125 µg/mL, the MIC (Pyricularia oryzae KB180) was 125 µg/mL (≈ 299 µM) and the MIC [2] was over 125 µg/mL. The MIC [3] was over 125 µg/mL, the MIC [4] was over 125 µg/mL and the MIC [5] was over 125 µg/mL. The MIC [6] was over 125 µg/mL, the MIC [7] was over 125 µg/mL and the inhibition ring [8, 15] was 25 mm. The inhibitory ring [8, 16] was “did not show an inhibitory ring”, the inhibition ring (Candida albicans KF1 [9]; [15]) was 15 mm and the inhibitory ring (Candida albicans KF1 [9]; [16]) was “did not show an inhibitory ring”. The MIC [10] was 125 µg/mL (≈ 299 µM), the MIC [11] was over 125 µg/mL and the MIC [12] was over 125 µg/mL. The MIC (Candida albicans KF1 [13]) was over 125 µg/mL and the MIC [14] was over 125 µg/mL.
